Measured values: patent publication US20120053115A1, “Lantibiotic Carboxyamide Derivatives With Enhanced Antibacterial Activity” (Sentinella Pharmaceuticals, Inc., priority 2008, published 2012)

Experiments:
[1] = tested on: Enterococcus faecium VanS (code 568); settings: E. faecium VanS code 568; 0.02% albumine bovine serum; read after 24 h
Experimental: (§1) MICs were performed using the broth microdilution methodology following the NCCLS procedure (NCCLS Document M7-A4 Vol. 17 No. 2 January 1997) in presence of 0.02% albumine bovine serum with inocula of approximately 5×10^5 cfu/mL. The media employed included cation-adjusted Mueller-Hinton (MH) broth (Difco Laboratories, Detroit, Mich., USA) supplemented or not with 30% (v/v) bovine serum. Tests were read after 24 h incubation at 25-37° C.

[2] = tested on: Escherichia coli (code 47); settings: 0.02% albumine bovine serum, read after 24 h
Experimental: as §1

[3] = tested on: S. haemolyticus Met-S (code 1730); settings: 0.02% albumine bovine serum, read after 24 h
Experimental: as §1

[4] = tested on: C. albicans ATCC 90028 (code 145); settings: 0.02% albumine bovine serum, read after 24 h
Experimental: as §1

S. pyogenes (code 49) = settings: 0.02% albumine bovine serum, read after 24 h
Experimental: as §1

[5] = tested on: E. faecium VanA (code 569); settings: 0.02% albumine bovine serum, read after 24 h
Experimental: as §1

[6] = tested on: E. faecalisVanS (code 559); settings: E. faecalis VanS code 559; 0.02% albumine bovine serum; read after 24 h
Experimental: as §1

[7] = tested on: Staphylococcus aureus VISA Met-R (code 3797); settings: S. aureus VISA Met-R code 3797; 0.02% albumine bovine serum; read after 24 h
Experimental: as §1

[8] = tested on: S. epidermidis ATCC12228 (code 147); settings: 0.02% albumine bovine serum, read after 24 h
Experimental: as §1

[9] = tested on: E. faecalisVanA (code 560); settings: E. faecalis VanA code 560; 0.02% albumine bovine serum; read after 24 h
Experimental: as §1

[10] = tested on: S. haemolyticus Met-R (code 1729); settings: 0.02% albumine bovine serum, read after 24 h
Experimental: as §1

[11] = tested on: Staphylococcus aureus VISA (code 3798); settings: S. aureus VISA code 3798; 0.02% albumine bovine serum; read after 24 h
Experimental: as §1

Row | Compound | Minimal Inhibitory Concentrations [1] [µg/mL] | Minimal Inhibitory Concentrations [2] [µg/mL] | Minimal Inhibitory Concentrations [3] [µg/mL] | Minimal Inhibitory Concentrations [4] [µg/mL] | Minimal Inhibitory Concentrations (S. pyogenes (code 49)) [µg/mL] | Minimal Inhibitory Concentrations [5] [µg/mL] | Minimal Inhibitory Concentrations [6] [µg/mL] | Minimal Inhibitory Concentrations [7] [µg/mL] | Minimal Inhibitory Concentrations [8] [µg/mL] | Minimal Inhibitory Concentrations [9] [µg/mL] | Minimal Inhibitory Concentrations [10] [µg/mL] | Minimal Inhibitory Concentrations [11] [µg/mL]
1 | C=C1NC(=O)[C@H](C(C)C)NC(=O)[C@H](NC(=O)/C(=C/C)NC(=O)[C@@H](N)[C@@H](C)CC)CSC[C@@H](C(=O)N[C@H]2C(=O)N3CCC[C@H]3C(=O)NCC(=O)N[C@H](C(=O)N[C@H](C(=O)N[C@@H]3CSC[C@@H]4NC(=O)CNC(=O)[C@@H](CSC[C@@H]5NC(=O)[C@H](Cc6c[nH]cn6)NC(=O)[C@@H](CSC[C@@H](C(=O)NCCCN(C)C)NC5=O)NC4=O)NC(=O)CNC(=O)CNC(=O)CNC(=O)[C@H](CCC(=O)NCCCN(C)C)NC3=O)[C@@H](C)O)CS[C@H]2C)NC(=O)[C@H](Cc2c[nH]c3ccccc23)NC1=O [Compound 3] | 2 | >128 | <0.125 | 64 | 2 | 1 | 4 | 1 | 2 | 4 | 1 | 0.50
2 | C=C1NC(=O)[C@H](C(C)C)NC(=O)[C@H](NC(=O)/C(=C/C)NC(=O)[C@@H](N)[C@@H](C)CC)CSC[C@@H](C(=O)N[C@H]2C(=O)N3CCC[C@H]3C(=O)NCC(=O)N[C@H](C(=O)N[C@H](C(=O)N[C@@H]3CSC[C@@H]4NC(=O)CNC(=O)[C@@H](CSC[C@@H]5NC(=O)[C@H](Cc6c[nH]cn6)NC(=O)[C@@H](CSC[C@@H](C(=O)NCCN(C)C)NC5=O)NC4=O)NC(=O)CNC(=O)CNC(=O)CNC(=O)[C@H](CCC(=O)NCCN(C)C)NC3=O)[C@@H](C)O)CS[C@H]2C)NC(=O)[C@H](Cc2c[nH]c3ccccc23)NC1=O [Compound 4] | 1 | >128 | <0.125 | 64 | 0.50 | 1 | 4 | 0.50 | 2 | 2 | 0.50 | 0.50
3 | C=C1NC(=O)[C@H](C(C)C)NC(=O)[C@H](NC(=O)/C(=C/C)NC(=O)[C@@H](N)[C@@H](C)CC)CSC[C@@H](C(=O)N[C@H]2C(=O)N3CCC[C@H]3C(=O)NCC(=O)N[C@H](C(=O)N[C@H](C(=O)N[C@@H]3CSC[C@@H]4NC(=O)CNC(=O)[C@@H](CSC[C@@H]5NC(=O)[C@H](Cc6c[nH]cn6)NC(=O)[C@@H](CSC[C@@H](C(=O)NCCOC)NC5=O)NC4=O)NC(=O)CNC(=O)CNC(=O)CNC(=O)[C@H](CCC(=O)NCCOC)NC3=O)[C@@H](C)O)CS[C@H]2C)NC(=O)[C@H](Cc2c[nH]c3ccccc23)NC1=O [Compound 11] | 16 | >128 | 4 | 64 |  | 8 | 16 | 8 | 8 | 16 | 32 | 4
4 | C=C1NC(=O)[C@H](C(C)C)NC(=O)[C@H](NC(=O)/C(=C/C)NC(=O)[C@@H](N)[C@@H](C)CC)CSC[C@@H](C(=O)N[C@H]2C(=O)N3CCC[C@H]3C(=O)NCC(=O)N[C@H](C(=O)N[C@H](C(=O)N[C@@H]3CSC[C@@H]4NC(=O)CNC(=O)[C@@H](CSC[C@@H]5NC(=O)[C@H](Cc6c[nH]cn6)NC(=O)[C@@H](CSC[C@@H](C(=O)NCCCCN(C)C)NC5=O)NC4=O)NC(=O)CNC(=O)CNC(=O)CNC(=O)[C@H](CCC(=O)NCCCCN(C)C)NC3=O)[C@@H](C)O)CS[C@H]2C)NC(=O)[C@H](Cc2c[nH]c3ccccc23)NC1=O [Compound 12] | 2 | >128 | <0.125 | 64 | 0.50 | 1 | 8 | 2 | 1 | 4 | 1 | 1
5 | C=C1NC(=O)[C@H](C(C)C)NC(=O)[C@H](NC(=O)/C(=C/C)NC(=O)[C@@H](N)[C@@H](C)CC)CSC[C@@H](C(=O)N[C@H]2C(=O)N3CCC[C@H]3C(=O)NCC(=O)N[C@H](C(=O)N[C@H](C(=O)N[C@@H]3CSC[C@@H]4NC(=O)CNC(=O)[C@@H](CSC[C@@H]5NC(=O)[C@H](Cc6c[nH]cn6)NC(=O)[C@@H](CSC[C@@H](C(=O)O)NC5=O)NC4=O)NC(=O)CNC(=O)CNC(=O)CNC(=O)[C@H](CCC(=O)O)NC3=O)[C@@H](C)O)CS[C@H]2C)NC(=O)[C@H](Cc2c[nH]c3ccccc23)NC1=O [Compound 97518, reference compound] | >128 | >128 | 128 | 64 | 0.25 | >128 | 128 | >128 | 64 | 128 | 128 | >128
